Data taken from patent publication US9550792B2, “Polycyclic substituted pyrazole kinase activity inhibitors and use thereof” (priority 2013, dated 2017).
Read-outs that look alike come from different tables or passages of the source.

How the values were obtained:
Type in all cases: biochemical
CDK2/A = target: T1, CDK2/A (Homo sapiens, UniProt P24941); assay: Inhibitory activity to CDK2 (FRET); conditions: read-out: CDK2 inhibition % (1 × 10^−6 mol/L)
T1 construct: purchased
Procedure, shortened: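 FRET-based kinase assay using CDK2/cyclin A with peptide substrate in HEPES pH 7.5 buffer (MgCl2, BRIJ-35, EDTA). The kinase reaction ran 1 h, followed by development reagent for 1 h and a stop step. Inhibition calculated relative to phospho-peptide (100%) and ATP-free (0%) phosphorylation controls.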

Aurora A = target: T2, Aurora A (Homo sapiens, UniProt O14965); assay: Inhibitory activity to Aurora A (FRET); conditions: read-out: Aurora A inhibition % (1 × 10^−6 mol/L)
T2 construct: purchased
T2 sequence (O14965 1-403): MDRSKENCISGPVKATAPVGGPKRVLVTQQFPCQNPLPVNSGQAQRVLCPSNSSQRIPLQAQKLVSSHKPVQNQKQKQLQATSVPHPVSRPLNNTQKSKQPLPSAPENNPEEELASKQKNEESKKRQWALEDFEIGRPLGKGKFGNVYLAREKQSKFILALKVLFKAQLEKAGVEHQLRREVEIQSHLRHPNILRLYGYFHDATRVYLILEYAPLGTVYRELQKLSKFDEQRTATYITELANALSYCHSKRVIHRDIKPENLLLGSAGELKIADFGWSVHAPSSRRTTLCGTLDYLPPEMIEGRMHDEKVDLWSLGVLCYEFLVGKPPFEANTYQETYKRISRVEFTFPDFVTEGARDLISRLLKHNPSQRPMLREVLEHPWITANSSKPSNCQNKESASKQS
Procedure, shortened: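 FRET kinase assay of Aurora A with peptide substrate in HEPES pH 7.5, BRIJ-35, MgCl2, EDTA; 1 h reaction, then 1 h development before stop. Ex 400 nm, emission 445 nm (coumarin) and 520 nm (fluorescein); 0% and 100% phosphorylation controls set inhibition scale.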

CDK1/cyclin A = CDK1/cyclin A (Homo sapiens, UniProt P06493); assay: Kinase IC50, 33P labeled isotope method
CDK1/cyclin B = CDK1/cyclin B (Homo sapiens, UniProt P06493); assay: Kinase IC50, 33P labeled isotope method
CDK1/cyclin E = CDK1/cyclin E (Homo sapiens, UniProt P06493); assay: Kinase IC50, 33P labeled isotope method
CDK1/cyclin E, sequence (P06493 4-287 limits assumed): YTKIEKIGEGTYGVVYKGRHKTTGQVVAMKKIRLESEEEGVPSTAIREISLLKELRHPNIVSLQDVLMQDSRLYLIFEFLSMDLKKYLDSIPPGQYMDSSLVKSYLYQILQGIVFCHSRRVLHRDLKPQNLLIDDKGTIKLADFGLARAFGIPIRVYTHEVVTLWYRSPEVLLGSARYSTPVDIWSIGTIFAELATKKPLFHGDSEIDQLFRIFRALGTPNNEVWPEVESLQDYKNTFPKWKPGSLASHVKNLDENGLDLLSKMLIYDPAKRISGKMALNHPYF
CDK1/cyclin E, sequence (P24864 whole entry partner): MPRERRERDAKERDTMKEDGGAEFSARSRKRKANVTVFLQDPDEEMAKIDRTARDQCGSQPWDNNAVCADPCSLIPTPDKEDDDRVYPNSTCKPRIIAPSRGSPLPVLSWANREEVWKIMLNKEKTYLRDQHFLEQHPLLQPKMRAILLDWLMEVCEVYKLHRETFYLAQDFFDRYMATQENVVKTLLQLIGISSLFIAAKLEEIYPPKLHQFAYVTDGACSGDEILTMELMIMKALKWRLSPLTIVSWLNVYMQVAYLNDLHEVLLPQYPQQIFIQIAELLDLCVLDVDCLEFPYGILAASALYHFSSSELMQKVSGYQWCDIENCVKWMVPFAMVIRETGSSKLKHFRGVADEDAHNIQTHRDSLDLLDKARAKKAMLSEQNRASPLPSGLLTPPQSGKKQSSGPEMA

CDK2/cyclin A = CDK2/cyclin A (Homo sapiens, UniProt P24941); assay: Kinase IC50, 33P labeled isotope method
CDK2/Cyclin A1 = CDK2/Cyclin A1 (Homo sapiens, UniProt P24941); assay: Kinase IC50, 33P labeled isotope method
CDK3/cyclin E = CDK3/cyclin E (Homo sapiens, UniProt Q00526); assay: Kinase IC50, 33P labeled isotope method
CDK3/cyclin E, sequence (Q00526 4-286 limits assumed): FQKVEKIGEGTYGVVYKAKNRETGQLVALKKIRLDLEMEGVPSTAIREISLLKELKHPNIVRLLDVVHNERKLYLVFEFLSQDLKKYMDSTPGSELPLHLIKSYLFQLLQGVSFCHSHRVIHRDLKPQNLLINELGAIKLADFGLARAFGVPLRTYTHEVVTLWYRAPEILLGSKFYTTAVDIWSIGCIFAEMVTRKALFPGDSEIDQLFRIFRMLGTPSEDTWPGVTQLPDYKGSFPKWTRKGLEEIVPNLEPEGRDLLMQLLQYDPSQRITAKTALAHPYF
CDK3/cyclin E, sequence (P24864 whole entry partner): as the sequence (P24864 whole entry partner) above

CDK4/cyclin D1 = CDK4/cyclin D1 (Homo sapiens, UniProt P11802); assay: Kinase IC50, 33P labeled isotope method
CDK4/cyclin D1, sequence (P11802 6-295 limits assumed): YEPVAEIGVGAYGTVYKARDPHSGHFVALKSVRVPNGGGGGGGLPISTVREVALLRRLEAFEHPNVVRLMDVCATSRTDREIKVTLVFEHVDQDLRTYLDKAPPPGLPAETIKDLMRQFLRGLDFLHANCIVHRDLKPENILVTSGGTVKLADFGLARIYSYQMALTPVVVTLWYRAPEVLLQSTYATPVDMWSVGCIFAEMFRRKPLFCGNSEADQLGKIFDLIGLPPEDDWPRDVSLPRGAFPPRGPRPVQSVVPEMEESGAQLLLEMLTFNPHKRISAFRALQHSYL
CDK4/cyclin D1, sequence (P24385 whole entry partner): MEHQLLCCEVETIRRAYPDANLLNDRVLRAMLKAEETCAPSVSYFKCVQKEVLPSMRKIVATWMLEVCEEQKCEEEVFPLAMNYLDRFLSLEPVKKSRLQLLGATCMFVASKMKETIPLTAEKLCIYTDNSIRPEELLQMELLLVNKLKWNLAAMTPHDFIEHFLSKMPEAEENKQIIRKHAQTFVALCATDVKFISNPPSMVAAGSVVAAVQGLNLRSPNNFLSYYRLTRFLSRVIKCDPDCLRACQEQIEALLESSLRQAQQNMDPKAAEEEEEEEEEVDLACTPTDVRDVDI

CDK5/p35 = CDK5/p35 (Homo sapiens, UniProt Q00535); assay: Kinase IC50, 33P labeled isotope method
CDK5/p35, sequence (Q00535 4-286 limits assumed): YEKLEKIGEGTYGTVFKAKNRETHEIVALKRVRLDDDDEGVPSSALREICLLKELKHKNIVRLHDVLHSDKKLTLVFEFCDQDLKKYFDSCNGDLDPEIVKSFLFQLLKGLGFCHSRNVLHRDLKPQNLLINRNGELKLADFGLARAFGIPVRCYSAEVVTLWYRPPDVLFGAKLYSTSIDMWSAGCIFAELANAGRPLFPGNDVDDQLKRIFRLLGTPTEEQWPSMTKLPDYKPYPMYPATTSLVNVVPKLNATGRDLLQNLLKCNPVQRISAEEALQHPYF
CDK5/p35, sequence (Q15078 whole entry partner): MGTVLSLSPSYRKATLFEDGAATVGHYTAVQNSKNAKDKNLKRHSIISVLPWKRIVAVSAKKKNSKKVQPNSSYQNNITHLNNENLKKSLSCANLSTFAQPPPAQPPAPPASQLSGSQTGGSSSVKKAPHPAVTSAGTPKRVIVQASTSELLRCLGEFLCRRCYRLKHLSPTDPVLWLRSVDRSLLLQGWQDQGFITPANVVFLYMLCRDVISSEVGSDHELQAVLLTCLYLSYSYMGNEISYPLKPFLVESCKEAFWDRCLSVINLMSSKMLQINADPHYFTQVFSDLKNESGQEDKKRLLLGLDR

CDK7/cyclin H = CDK7/cyclin H (Homo sapiens, UniProt P50613); assay: Kinase IC50, 33P labeled isotope method
CDK7/cyclin H, sequence (P50613 12-295 limits assumed): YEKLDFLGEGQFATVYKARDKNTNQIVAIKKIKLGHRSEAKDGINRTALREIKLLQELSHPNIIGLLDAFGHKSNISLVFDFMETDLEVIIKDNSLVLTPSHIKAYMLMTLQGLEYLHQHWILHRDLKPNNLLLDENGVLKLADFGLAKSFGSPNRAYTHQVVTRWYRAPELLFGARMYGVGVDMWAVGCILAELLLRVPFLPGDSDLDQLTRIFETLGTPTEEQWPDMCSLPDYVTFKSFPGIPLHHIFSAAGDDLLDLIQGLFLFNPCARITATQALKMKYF
CDK7/cyclin H, sequence (P51946 whole entry partner): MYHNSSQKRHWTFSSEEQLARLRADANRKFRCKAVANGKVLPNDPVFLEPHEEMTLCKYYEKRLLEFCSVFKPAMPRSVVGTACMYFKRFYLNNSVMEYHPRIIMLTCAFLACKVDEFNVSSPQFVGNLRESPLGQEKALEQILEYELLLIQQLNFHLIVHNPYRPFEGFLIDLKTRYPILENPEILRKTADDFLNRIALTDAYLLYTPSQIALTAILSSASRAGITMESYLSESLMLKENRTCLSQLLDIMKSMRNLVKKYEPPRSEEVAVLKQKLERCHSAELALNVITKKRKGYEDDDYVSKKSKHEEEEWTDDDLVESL
CDK7/cyclin H, sequence (P51948 whole entry partner): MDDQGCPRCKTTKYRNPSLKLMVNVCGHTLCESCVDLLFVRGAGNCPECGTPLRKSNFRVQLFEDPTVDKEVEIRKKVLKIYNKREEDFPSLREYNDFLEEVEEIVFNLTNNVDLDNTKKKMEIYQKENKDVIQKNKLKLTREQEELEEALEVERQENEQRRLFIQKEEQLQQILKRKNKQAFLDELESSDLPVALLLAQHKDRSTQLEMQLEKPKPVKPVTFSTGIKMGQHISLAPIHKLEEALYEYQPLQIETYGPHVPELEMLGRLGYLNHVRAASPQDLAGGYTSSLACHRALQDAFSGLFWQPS

ERK7/MAPK15 = target: T3, ERK7/MAPK15 (Homo sapiens, UniProt Q8TD08); assay: Kinase IC50, 33P labeled isotope method
T3 sequence (Q8TD08 13-304 limits assumed): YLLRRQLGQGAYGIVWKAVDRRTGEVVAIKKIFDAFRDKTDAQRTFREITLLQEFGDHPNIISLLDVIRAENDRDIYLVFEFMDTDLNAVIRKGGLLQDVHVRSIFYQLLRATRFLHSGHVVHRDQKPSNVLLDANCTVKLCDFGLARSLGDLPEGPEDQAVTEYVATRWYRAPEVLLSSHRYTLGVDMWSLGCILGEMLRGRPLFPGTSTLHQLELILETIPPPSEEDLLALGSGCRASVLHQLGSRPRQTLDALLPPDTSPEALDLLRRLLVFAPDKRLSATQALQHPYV

FGFR1 = FGFR1 (Homo sapiens, UniProt P11362); assay: Kinase IC50, 33P labeled isotope method
FGFR1, sequence (P11362 478-767 limits assumed): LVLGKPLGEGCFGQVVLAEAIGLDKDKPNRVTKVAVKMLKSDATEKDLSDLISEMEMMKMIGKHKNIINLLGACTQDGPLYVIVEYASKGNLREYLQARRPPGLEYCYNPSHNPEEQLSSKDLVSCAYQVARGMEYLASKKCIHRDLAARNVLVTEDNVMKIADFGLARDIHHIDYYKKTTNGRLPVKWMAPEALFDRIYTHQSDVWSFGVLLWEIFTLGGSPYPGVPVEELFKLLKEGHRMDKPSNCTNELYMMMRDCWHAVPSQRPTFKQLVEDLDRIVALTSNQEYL

FGFR2 = FGFR2 (Homo sapiens, UniProt P21802); assay: Kinase IC50, 33P labeled isotope method
FGFR2, sequence (P21802 481-770 limits assumed): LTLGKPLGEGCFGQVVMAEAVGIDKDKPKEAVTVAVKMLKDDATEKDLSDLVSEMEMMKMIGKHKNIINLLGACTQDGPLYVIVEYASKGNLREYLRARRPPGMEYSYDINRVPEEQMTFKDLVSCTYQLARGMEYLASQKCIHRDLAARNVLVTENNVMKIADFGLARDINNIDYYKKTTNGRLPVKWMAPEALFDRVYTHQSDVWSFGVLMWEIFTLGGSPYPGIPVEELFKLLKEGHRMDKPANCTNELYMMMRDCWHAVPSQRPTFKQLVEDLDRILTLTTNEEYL

FGFR3 = FGFR3 (Homo sapiens, UniProt P22607); assay: Kinase IC50, 33P labeled isotope method; conditions: 20 μM ATP
FGFR3, sequence (P22607 472-761 limits assumed): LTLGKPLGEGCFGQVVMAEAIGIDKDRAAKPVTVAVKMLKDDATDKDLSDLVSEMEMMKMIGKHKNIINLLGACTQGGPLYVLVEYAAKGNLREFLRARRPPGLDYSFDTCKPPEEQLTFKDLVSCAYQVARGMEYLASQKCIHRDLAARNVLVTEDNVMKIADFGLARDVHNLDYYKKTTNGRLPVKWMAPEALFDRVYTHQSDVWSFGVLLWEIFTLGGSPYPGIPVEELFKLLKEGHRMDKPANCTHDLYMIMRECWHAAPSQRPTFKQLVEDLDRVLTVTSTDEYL

FLT1/VEGFR1 = target: T4, FLT1/VEGFR1 (Homo sapiens, UniProt P17948); assay: Kinase IC50, 33P labeled isotope method
T4 sequence (P17948 827-1158 limits assumed): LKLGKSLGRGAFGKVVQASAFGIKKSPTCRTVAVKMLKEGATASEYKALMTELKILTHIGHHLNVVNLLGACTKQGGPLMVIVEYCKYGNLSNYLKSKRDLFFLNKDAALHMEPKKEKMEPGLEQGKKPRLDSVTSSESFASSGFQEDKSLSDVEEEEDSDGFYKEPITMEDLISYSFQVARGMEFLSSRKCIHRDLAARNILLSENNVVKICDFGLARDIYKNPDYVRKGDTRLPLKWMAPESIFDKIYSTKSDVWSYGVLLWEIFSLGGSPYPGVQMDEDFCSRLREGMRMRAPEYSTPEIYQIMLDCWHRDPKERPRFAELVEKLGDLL

JAK2 = JAK2 (Homo sapiens, UniProt O60674); assay: Kinase IC50, 33P labeled isotope method
JNK1 = JNK1 (Homo sapiens, UniProt P45983); assay: Kinase IC50, 33P labeled isotope method
JNK2 = JNK2 (Homo sapiens, UniProt P45984); assay: Kinase IC50, 33P labeled isotope method
JNK2, sequence (P45984 26-321 limits assumed): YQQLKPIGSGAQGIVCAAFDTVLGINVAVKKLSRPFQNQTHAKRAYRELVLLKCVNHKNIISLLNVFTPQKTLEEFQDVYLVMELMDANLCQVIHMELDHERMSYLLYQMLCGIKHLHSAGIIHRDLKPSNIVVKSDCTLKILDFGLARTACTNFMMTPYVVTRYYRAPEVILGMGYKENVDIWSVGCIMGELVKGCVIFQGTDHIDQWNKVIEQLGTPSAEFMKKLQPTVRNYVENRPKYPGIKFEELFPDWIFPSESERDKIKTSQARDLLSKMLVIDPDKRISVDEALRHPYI

KDR/VEGFR2 = KDR/VEGFR2 (Homo sapiens, UniProt P35968); assay: Kinase IC50, 33P labeled isotope method
KDR/VEGFR2, sequence (P35968 834-1162 limits assumed): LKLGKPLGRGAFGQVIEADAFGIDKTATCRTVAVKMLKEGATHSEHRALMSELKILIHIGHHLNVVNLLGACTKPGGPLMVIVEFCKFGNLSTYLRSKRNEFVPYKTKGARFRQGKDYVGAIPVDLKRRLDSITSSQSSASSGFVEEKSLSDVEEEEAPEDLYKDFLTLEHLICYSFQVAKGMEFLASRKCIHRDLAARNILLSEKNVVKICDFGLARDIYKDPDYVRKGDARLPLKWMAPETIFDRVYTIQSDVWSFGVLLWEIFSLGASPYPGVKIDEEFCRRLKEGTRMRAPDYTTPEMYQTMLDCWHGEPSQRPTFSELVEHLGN

[1] = 20 μM ATP, read-out: IC50* CDK1/cyclin A
[2] = 20 μM ATP, read-out: IC50* CDK1/cyclin B
[3] = 20 μM ATP, read-out: IC50* CDK1/cyclin E
[4] = 20 μM ATP, read-out: IC50* CDK2/cyclin A
[5] = 20 μM ATP, read-out: IC50* CDK2/Cyclin A1
[6] = 20 μM ATP, read-out: IC50* CDK3/cyclin E
[7] = 20 μM ATP, read-out: IC50* CDK4/cyclin D1
[8] = 20 μM ATP, read-out: IC50* CDK5/p35
[9] = 20 μM ATP, read-out: IC50* CDK7/cyclin H
[10] = 20 μM ATP, read-out: IC50* ERK7/MAPK15
[11] = 20 μM ATP, read-out: IC50* FGFR1
[12] = 20 μM ATP, read-out: IC50* FGFR2
[13] = 20 μM ATP, read-out: IC50* FLT1/VEGFR1
[14] = 20 μM ATP, read-out: IC50* JAK2
[15] = 20 μM ATP, read-out: IC50* JNK1
[16] = 20 μM ATP, read-out: IC50* JNK2
[17] = 20 μM ATP, read-out: IC50* KDR/VEGFR2

SMILES	inhibition at 1 µM (CDK2/A) [%]	inhibition at 1 µM (Aurora A) [%]	IC50 (CDK1/cyclin A; [1]) [nM]	IC50 (CDK1/cyclin B; [2]) [nM]	IC50 (CDK1/cyclin E; [3]) [nM]	IC50 (CDK2/cyclin A; [4]) [nM]	IC50 (CDK2/Cyclin A1; [5]) [nM]	IC50 (CDK3/cyclin E; [6]) [nM]	IC50 (CDK4/cyclin D1; [7]) [nM]	IC50 (CDK5/p35; [8]) [nM]	IC50 (CDK7/cyclin H; [9]) [nM]	IC50 (ERK7/MAPK15; [10]) [nM]	IC50 (FGFR1; [11]) [nM]	IC50 (FGFR2; [12]) [nM]	IC50 (FGFR3) [nM]	IC50 (FLT1/VEGFR1; [13]) [nM]	IC50 (JAK2; [14]) [nM]	IC50 (JNK1; [15]) [nM]	IC50 (JNK2; [16]) [nM]	IC50 (KDR/VEGFR2; [17]) [nM]	further results
CN1CCN(Cc2ccc(NC(=O)c3n[nH]cc3Nc3ncnc4occc34)cc2)CC1 [Compound I-21, 4-(4-furo[2,3-d]pyrimidinylamino)-N-(4-((4-methyl-1-piperazinyl)methyl)phenyl)-1H-3-pyrazolecarboxamide]	66	60.8	173	96	106	17	11	210	7	16	611	8	335	257	890	24	875	1430	1490	41	
CN1CCN(Cc2ccc(NC(=O)c3n[nH]cc3Nc3ncnc4[nH]ccc34)cc2)CC1 [Compound I-11, 4-(4-(7H-pyrrolo[2,3-d]pyrimidinyl)amino)-N-(4-((4-methyl-1-piperazinyl)methyl)phenyl)-1H-3-pyrazolecarboxamide]	67.9	64.3													657						IC50 (CDK1/cyclin A): 128 nM; IC50 (CDK1/cyclin B): 71 nM; IC50 (CDK1/cyclin E): 78 nM; IC50 (CDK2/cyclin A): 13 nM; IC50 (CDK2/Cyclin A1): 8 nM; IC50 (CDK3/cyclin E): 155 nM; IC50 (CDK4/cyclin D1): 6 nM; IC50 (CDK5/p35): 12 nM; IC50 (CDK7/cyclin H): 471 nM; IC50 (ERK7/MAPK15): 7 nM; IC50 (FGFR1): 247 nM; IC50 (FGFR2): 189 nM; IC50 (FLT1/VEGFR1): 19 nM; IC50 (JAK2): 644 nM; IC50 (JNK1): 1240 nM; IC50 (JNK2): 1320 nM; IC50 (KDR/VEGFR2): 31 nM
Cc1cc2c(Nc3c[nH]nc3C(=O)Nc3ccc(CN4CCN(C)CC4)cc3)ncnc2s1 [Compound I-3, 4-(4-(6-methylthieno[2,3-d]pyrimidinyl)amino)-N-(4-((4-methyl-1-piperazinyl)methyl)phenyl)-1H-3-pyrazolecarboxamide]	62.5	75.2	142	79	87	14	9	171	6	13	495	7	274	210	723	19	716	1130	1170	33	
O=C(Nc1ccc(CN2CCOCC2)cc1)c1n[nH]cc1Nc1ncnc2sccc12 [Compound I-2, 4-(4-thieno[2,3-d]pyrimidinylamino)-N-(4-((4-morpholinyl)methyl)phenyl)-1H-3-pyrazolecarboxamide]	46.6	52.2																			
Cc1cc2c(Nc3c[nH]nc3C(=O)Nc3ccc(CN4CCN(C)CC4)cc3)ncnc2[nH]1 [Compound I-13, 4-(4-(6-methyl-7H-pyrrolo[2,3-d]pyrimidinyl)amino)-N-(4-((4-methyl-1-piperazinyl)methyl)phenyl)-1H-3-pyrazolecarboxamide]	67	60.8	158	88	97	15	10	191	8	15	583	8	305	234	811	23	795	1550	1650	39	
CN1CCN(Cc2ccc(NC(=O)c3n[nH]cc3Nc3ncnc4sccc34)cc2)CC1 [Compound I-1, 4-(4-thieno[2,3-d]pyrimidinylamino)-N-(4-((4-methyl-1-piperazinyl)methyl)phenyl)-1H-3-pyrazole carboxamide]	70.9	67.9		87	96					15	522		304	233	807		795	≥ 1000	≥ 1000		IC50 (CDK1/cyclin A): 157 nM; IC50 (CDK2/cyclin A): 15 nM; IC50 (CDK2/Cyclin A1): 9 nM; IC50 (CDK3/cyclin E): 190 nM; IC50 (CDK4/cyclin D1): 6 nM; IC50 (ERK7/MAPK15): 7 nM; IC50 (FLT1/VEGFR1): 20 nM; IC50 (KDR/VEGFR2): 35 nM
Cc1cc2c(Nc3c[nH]nc3C(=O)Nc3ccc(CN4CCN(C)CC4)cc3)nccc2s1 [Compound I-27, 4-(4-(2-methylthieno[3,2-c]pyridyl)amino)-N-(4-((4-methyl-1-piperazinyl)methyl)phenyl)-1H-3-pyrazolecarboxamide]	72.6	67.8	164	91	100	16	10	198	7	15	575	8	316	242	841	22	826	1330	1380	38	
